According to PubChem BioAssay (NCI):
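GI50: concentration for 50% inhibition of growth. TGI denotes the concentration required for complete inhibition of growth.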

Assays:
Experiment in all cases: NCI-60 cell line screen, 384-well format
[1] = system: NCI-H23 lung
[2] = system: OVCAR-8 ovarian
[3] = system: IGROV1 ovarian
[4] = system: NCI/ADR-RES ovarian
[5] = system: UACC-62 melanoma
[6] = system: SR leukemia
[7] = system: HL-60(TB) leukemia
[8] = system: SNB-19 CNS
[9] = system: HCC-2998 colon
[10] = system: EKVX NSCLC
[11] = system: RPMI-8226 leukemia
[12] = system: SNB-75 CNS
[13] = system: NCI-H226 lung
[14] = system: DU-145 prostate
[15] = system: NCI-H322M lung
[16] = system: HCT-15 colon
[17] = system: MCF7 breast
[18] = system: HS 578T breast
[19] = system: NCI-H460 NSCLC
[20] = system: HCT-116 colon
[21] = system: MDA-MB-468 breast
[22] = system: UO-31 renal
[23] = system: COLO 205 colon
[24] = system: M14 melanoma
[25] = system: ACHN renal
[26] = system: CAKI-1 renal
[27] = system: SF-295 CNS
[28] = system: LOX IMVI melanoma

Question: Which GI50 [1] does the source give for COC1CCC(N2C(=O)CNc3ncc(-c4ccc(C(C)(C)O)nc4)nc32)CC1 (stereo unspecified) here?
Answer: The GI50 was 1.46 µM.

Question: What about the TGI [1] of the same molecule?
Answer: Its TGI is greater than 100 µM.

Question: And the GI50 [2]?
Answer: The GI50 was 0.693 µM.

Question: What about the TGI [2] of the same molecule?
Answer: Its TGI is greater than 100 µM.

Question: And the GI50 [3]?
Answer: The GI50 was 0.137 µM.

Question: And the TGI [3]?
Answer: Its TGI is 12.8 µM.

Question: And the GI50 [4]?
Answer: The GI50 was 2.36 µM.

Question: What about the TGI [4] of the same molecule?
Answer: The TGI was 32.3 µM.

Question: What about the GI50 [5] of the same molecule?
Answer: Its GI50 is 0.237 µM.

Question: And the TGI [5]?
Answer: The TGI was 8.49 µM.

Question: And the GI50 [6]?
Answer: Its GI50 is 0.016 µM.

Question: What about the TGI [6] of the same molecule?
Answer: The TGI was 0.0533 µM.

Question: And the GI50 [7]?
Answer: The GI50 was 2.47 µM.

Question: And the TGI [7]?
Answer: Its TGI is 17.1 µM.

Question: What about the GI50 [8] of the same molecule?
Answer: The GI50 was 5.34 µM.

Question: And the TGI [8]?
Answer: The TGI was greater than 100 µM.

Question: And the GI50 [9]?
Answer: Its GI50 is 2.54 µM.

Question: What about the TGI [9] of the same molecule?
Answer: The TGI was 34.8 µM.

Question: What about the GI50 [10] of the same molecule?
Answer: Its GI50 is 0.53 µM.

Question: And the TGI [10]?
Answer: The TGI was 31.2 µM.

Question: And the GI50 [11]?
Answer: The GI50 was 0.025 µM.

Question: What about the TGI [11] of the same molecule?
Answer: The TGI was 0.11 µM.

Question: What about the GI50 [12] of the same molecule?
Answer: Its GI50 is 0.256 µM.

Question: And the TGI [12]?
Answer: Its TGI is 22.9 µM.

Question: And the GI50 [13]?
Answer: Its GI50 is 0.326 µM.

Question: What about the TGI [13] of the same molecule?
Answer: Its TGI is 7.12 µM.

Question: What about the GI50 [14] of the same molecule?
Answer: Its GI50 is 0.66 µM.

Question: And the TGI [14]?
Answer: The TGI was 20.2 µM.

Question: And the GI50 [15]?
Answer: Its GI50 is 0.28 µM.

Question: And the TGI [15]?
Answer: The TGI was 52.9 µM.

Question: And the GI50 [16]?
Answer: The GI50 was 0.448 µM.

Question: And the TGI [16]?
Answer: Its TGI is 44.7 µM.

Question: What about the GI50 [17] of the same molecule?
Answer: The GI50 was 0.0686 µM.

Question: And the TGI [17]?
Answer: The TGI was greater than 100 µM.

Question: What about the GI50 [18] of the same molecule?
Answer: The GI50 was 0.173 µM.

Question: What about the TGI [18] of the same molecule?
Answer: Its TGI is 0.523 µM.

Question: And the GI50 [19]?
Answer: The GI50 was 0.0659 µM.

Question: What about the TGI [19] of the same molecule?
Answer: The TGI was 16.3 µM.

Question: What about the GI50 [20] of the same molecule?
Answer: Its GI50 is 0.69 µM.

Question: What about the TGI [20] of the same molecule?
Answer: The TGI was 21.8 µM.

Question: What about the GI50 [21] of the same molecule?
Answer: Its GI50 is 0.344 µM.

Question: And the TGI [21]?
Answer: The TGI was 6.98 µM.

Question: And the GI50 [22]?
Answer: Its GI50 is 0.358 µM.

Question: And the TGI [22]?
Answer: Its TGI is greater than 100 µM.

Question: And the GI50 [23]?
Answer: Its GI50 is 0.323 µM.

Question: And the TGI [23]?
Answer: The TGI was greater than 100 µM.

Question: And the GI50 [24]?
Answer: The GI50 was 0.296 µM.

Question: And the TGI [24]?
Answer: Its TGI is greater than 100 µM.

Question: What about the GI50 [25] of the same molecule?
Answer: The GI50 was 0.479 µM.

Question: What about the TGI [25] of the same molecule?
Answer: Its TGI is greater than 100 µM.

Question: And the GI50 [26]?
Answer: Its GI50 is 0.215 µM.

Question: And the TGI [26]?
Answer: Its TGI is 3.62 µM.

Question: What about the GI50 [27] of the same molecule?
Answer: Its GI50 is 0.184 µM.

Question: What about the TGI [27] of the same molecule?
Answer: The TGI was 1.12 µM.

Question: And the GI50 [28]?
Answer: The GI50 was 0.587 µM.

Question: And the TGI [28]?
Answer: The TGI was 12.9 µM.
